Results: patent publication US20260224524A1, “A PHARMACEUTICAL COMPOSITION TARGETING MUTANT P53 AND HER2” (DR DOZO LABORATORIES, priority 2023, published 2026)
Converted amounts (≈) assume the structure as drawn.

Key:
Format in all cases: cell-based
[1] = test system: Human Pancreatic Cancer Cell Line Mia-Pa-Ca-2; test: Growth inhibition (% control growth, LC50, TGI, GI50) Mia-Pa-Ca-2; details: Mia-Pa-Ca-2
Procedure: The therapeutic effect of SA1 (peak 5) and SA2 (peak 4) is evaluated against human pancreatic cancer cell line Mia-Pa-Ca-2 by calculating the percentage growth inhibition, drug concentration of test compound needed to inhibit cell growth by 50% (GI50) values.
The therapeutic effect of SACC is evaluated against human […] cancer cell line Mia-Pa-Ca-2 by calculating the percentage growth inhibition, drug concentration of test compound needed to inhibit cell growth by 50% (GI50) values.

[2] = test system: Human Breast Cancer Cell Line MDA-MB-231; test: Growth inhibition (% control growth, LC50, TGI, GI50) MDA-MB-231
Procedure: The therapeutic effect of […] (peak 5) and SA2 (peak 4) is evaluated against human […] cancer cell line MDA-MB-231 by calculating the percentage growth inhibition, drug concentration of test compound needed to inhibit cell growth by 50% (GI50) values.
The therapeutic effect of SACC is evaluated against human […] cancer cell lines MDA-MB-231 by calculating the percentage growth inhibition, drug concentration of test compound needed to inhibit cell growth by 50% (GI50) values.

[3] = test system: Human Breast Cancer Cell Line MDA-MB-231; test: as above; details: Molar drug concentrations calculated from graph
lung cancer cell = test: Cell viability MTT assay of SACC fractions on lung cells; details: 24 h, read-out: inhibitory concentrations, lung cancer cell growth
Procedure: The effect of SACC fractions (peak 2, peak 3, peak 4 and peak 5) on viability of lung cells was determined by MTT assay.
Cells were seeded in 96 wells plate at a density of 1×10^4 per well in 200 μL of respective complete culture medium containing 10% FBS and 1% antibiotics. After 70% confluency, cells were treated with the respective doses (indicated in the graph) of SACC and its fraction in complete culture medium for 24 h. After incubation for a specified time at 37° C. in a humidified incubator, dye MTT (5 mg/mL in PBS; diluted in 10 mL of serum-free medium) was added to each well and incubated for 2 h, after which the plate was centrifuged at 1,000 rpm for 5 min at 4° C. After careful removal of the medium, 0.1 mL buffered DMSO was added to each well. The absorbance was recorded on a microplate reader at the wavelength of 540 nm. The effect SACC and its fraction on cell growth inhibition was assessed as percent cell viability, where vehicle-treated cells were taken as 100% viable.

[4] = test system: Human Lung Cancer Cell Line A-549; test: Growth inhibition (% control growth, LC50, TGI, GI50) A-549; details: A-549
Procedure: The therapeutic effect of SA1 (peak 5) and SA2 (peak 4) is evaluated against human lung cancer cell line A-549 by calculating the percentage growth inhibition, drug concentration of test compound needed to inhibit cell growth by 50% (GI50) values.
The therapeutic effect of SACC is evaluated against human lung cancer cell line A-549 by calculating the percentage growth inhibition, drug concentration of test compound needed to inhibit cell growth by 50% (GI50) values.

SMILES: Cc1ccc(O)oc1=O (single isomer, unassigned) [SA2 (peak 4), 6-hydroxy-3-methyl-2H-pyran-2-one]
- GI50 ([1]; Homo sapiens, MIA PaCa-2, Molar drug concentrations calculated from graph): 0.000301 µg/mL (≈ 0.00239 µM)
- % Control Growth ([1]; 10^−4M, Average Values): 40.5%
- % Control Growth ([1]; 10^−4M, Experiment 1): 40.0%
- % Control Growth ([1]; 10^−4M, Experiment 2): 36.6%
- % Control Growth ([1]; 10^−4M, Experiment 3): 45.0%
- % Control Growth ([1]; 10^−5M, Average Values): 100.5%
- % Control Growth ([1]; 10^−5M, Experiment 1): 76.9%
- % Control Growth ([1]; 10^−5M, Experiment 2): 116.3%
- % Control Growth ([1]; 10^−5M, Experiment 3): 108.3%
- % Control Growth ([1]; 10^−6M, Average Values): 112.4%
- % Control Growth ([1]; 10^−6M, Experiment 1): 114.3%
- % Control Growth ([1]; 10^−6M, Experiment 2): 115.6%
- % Control Growth ([1]; 10^−6M, Experiment 3): 107.5%
- % Control Growth ([1]; 10^−7M, Average Values): 102.1%
- % Control Growth ([1]; 10^−7M, Experiment 1): 95.4%
- % Control Growth ([1]; 10^−7M, Experiment 2): 111.8%
- % Control Growth ([1]; 10^−7M, Experiment 3): 99.0%
- TGI ([1]; Molar drug concentrations calculated from graph): 0.1054 µg/mL (≈ 0.836 µM)
- % Control Growth ([2]; 10^−4M, Average Values): 27.9%
- % Control Growth ([2]; 10^−4M, Experiment 1): 50.1%
- % Control Growth ([2]; 10^−4M, Experiment 2): 18.1%
- % Control Growth ([2]; 10^−4M, Experiment 3): 15.5%
- % Control Growth ([2]; 10^−5M, Average Values): 47.2%
- % Control Growth ([2]; 10^−5M, Experiment 1): 45.5%
- % Control Growth ([2]; 10^−5M, Experiment 2): 42.0%
- % Control Growth ([2]; 10^−5M, Experiment 3): 54.1%
- % Control Growth ([2]; 10^−6M, Average Values): 62.8%
- % Control Growth ([2]; 10^−6M, Experiment 1): 68.2%
- % Control Growth ([2]; 10^−6M, Experiment 2): 59.7%
- % Control Growth ([2]; 10^−6M, Experiment 3): 60.5%
- % Control Growth ([2]; 10^−7M, Average Values): 57.0%
- % Control Growth ([2]; 10^−7M, Experiment 1): 81.0%
- % Control Growth ([2]; 10^−7M, Experiment 2): 42.6%
- % Control Growth ([2]; 10^−7M, Experiment 3): 47.3%
- GI50 ([2]; Homo sapiens, Molar drug concentrations calculated from graph): 2.38 µg/mL (≈ 18.9 µM)
- TGI [3]: 0.1727 µg/mL (≈ 1.37 µM)
- IC50 (lung cancer cell): 1.02 µg/mL (≈ 8.09 µM)
- % Control Growth ([4]; 10^−4M, Average Values): 54.9%
- % Control Growth ([4]; 10^−4M, Experiment 1): 54.4%
- % Control Growth ([4]; 10^−4M, Experiment 2): 51.7%
- % Control Growth ([4]; 10^−4M, Experiment 3): 58.6%
- % Control Growth ([4]; 10^−5M, Average Values): 74.8%
- % Control Growth ([4]; 10^−5M, Experiment 1): 81.5%
- % Control Growth ([4]; 10^−5M, Experiment 2): 72.0%
- % Control Growth ([4]; 10^−5M, Experiment 3): 70.9%
- % Control Growth ([4]; 10^−6M, Average Values): 77.4%
- % Control Growth ([4]; 10^−6M, Experiment 1): 74.0%
- % Control Growth ([4]; 10^−6M, Experiment 2): 80.1%
- % Control Growth ([4]; 10^−6M, Experiment 3): 78.2%
- % Control Growth ([4]; 10^−7M, Average Values): 77.3%
- % Control Growth ([4]; 10^−7M, Experiment 1): 80.0%
- % Control Growth ([4]; 10^−7M, Experiment 2): 76.9%
- % Control Growth ([4]; 10^−7M, Experiment 3): 74.9%
- GI50 ([4]; Homo sapiens, A549, Molar drug concentrations calculated from graph): 0.0034 µg/mL (≈ 0.0269 µM)

SMILES: O=C1CC2=CC(O)=CC(=O)C2=CO1 (single isomer, unassigned) [peak 2, 6-hydroxy-3H-isochromene-3, 8(4H)-dione]
- IC50 (lung cancer cell): 1.04 µg/mL (≈ 5.84 µM)

SMILES: Cc1ccc2[nH]cc(C(=O)O)c2c1 (single isomer, unassigned) [peak 3, 5-methyl-1H-indole-3-carboxylic acid]
- IC50 (lung cancer cell): 1.06 µg/mL (≈ 6.05 µM)
